# Test results as given in patent US10544112B2, “Identification of ebsulfur analogues with broad-spectrum antifungal activity” (priority 2017, dated 2020).
# Read-outs that look alike come from different tables or passages of the source. Marks after values point to notes of the source that are not given here.
# Tests used:
# [1] = system: C. albicans ATCC 10231 (strain A); assay: ROS production assay (DCFH-DA); format: cell-based, Candida albicans; conditions: 1× and 2× MIC (H2O2 1 mM), 1-h treatment
# Description: ROS production assay was performed as previously described with minor modifications. […] Once entering the cells, the DCFH-DA probe is first hydrolyzed to the non-fluorescent 2′,7′-dichlorodihydrofluorescein (DCFH) by cellular esterases. […] A colony of C. albicans ATCC 10231 (strain A) was used to inoculate 5 mL of PDB in a Falcon tube and grown overnight at 35° C. at 200 rpm.
# Thus, whether the compounds of the invention would also induce ROS against C. albicans was studied. […] 2′,7′-dichlorodihydrofluorescin diacetate (DCFH-DA) was then used to detect and visualize ROS production (FIG. 5). As a positive control, cells were treated with H2O2, which is an inducer of hydroxyl radical formation.
# [2] = system: C. albicans ATCC 64124 (strain B); format: cell-based, Candida albicans
# Description: The efficiency of the compounds to kill C. albicans ATCC 64124 (strain B) was monitored using a previously published protocol. The cell suspensions were prepared to achieve an inoculum of approximately 1-4×10^5 CFU/mL in RPMI 1640 medium at 35° C. […] After fungal cell addition, at 0, 3, 6, 9, 12, and 24 h, the tubes were vortexed and 100 μL aliquots were removed from each solution, spread onto PDA plates, and incubated at 35° C. Colony counts were determined after 24 h of incubation. The experiments were performed in duplicate (FIG. 2).
# Time-kill assays with ebsulfur (2a) and analogue 3a (FIG. 2) were performed to determine the rate of fungicidal activity of the compounds if the invention.
# [3] = system: C. albicans ATCC MYA-2310(S) (strain E); assay: Antifungal MIC determination (CLSI M27-A3, 96-well); format: cell-based, Candida albicans; conditions: for MIC-0: strain E, compounds 1-4n and AmB, 48 h, RPMI 1640
# Procedure, shortened: (§1)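 Yeasts were precultured in potato dextrose broth, then diluted in RPMI 1640 (pH 7.0, 0.165 M MOPS) to a final 5×10^3 CFU/mL. Compounds were serially diluted two-fold to 12.5-0.02 μg/mL. Plates were incubated 48 h at 35° C.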
# [4] = system: C. albicans ATCC MYA-2876(S) (strain C); assay: as above; format: cell-based, Candida albicans; conditions: for MIC-0: strain C, compounds 1-4n and AmB, 48 h, RPMI 1640
# Procedure, shortened: as §1
# [5] = system: C. albicans ATCC 64124 (strain B); assay: microbe, parasite or virus in culture; format: cell-based, Candida albicans; conditions: for MIC-0: strain B, compounds 1-4n and AmB, 48 h, RPMI 1640
# Procedure, shortened: as §1
# [6] = system: C. albicans ATCC 90819(R) (strain D); assay: microbe, parasite or virus in culture; format: cell-based, Candida albicans; conditions: for MIC-0: strain D, compounds 1-4n and AmB, 48 h, RPMI 1640
# Procedure, shortened: as §1
# [7] = system: C. albicans ATCC MYA-1003(R) (strain G); assay: microbe, parasite or virus in culture; format: cell-based, Candida albicans; conditions: for MIC-0: strain G, compounds 1-4n and AmB, 48 h, RPMI 1640
# Procedure, shortened: as §1
# [8] = system: C. albicans ATCC MYA-1237(R) (strain F); assay: microbe, parasite or virus in culture; format: cell-based, Candida albicans; conditions: for MIC-0: strain F, compounds 1-4n and AmB, 48 h, RPMI 1640
# Procedure, shortened: as §1
# [9] = system: Candida krusei ATCC 6258 (strain I); assay: Antifungal MIC determination (CLSI M27-A3, 96-well); format: cell-based; conditions: for MIC-0: compounds 1-4n and AmB, 48 h, RPMI 1640; for MIC: Pichia kudriavzevii
# Procedure, shortened: as §1
# [10] = system: Candida parapsilosis ATCC 22019 (strain J); assay: as above; format: cell-based; conditions: for MIC-0: compounds 1-4n and AmB, 48 h, RPMI 1640; for MIC: Lodderomyces parapsilosis
# Procedure, shortened: as §1
# [11] = system: Candida albicans ATCC 10231 (strain A); assay: as above; format: cell-based; conditions: for MIC-0: strain A, compounds 1-4n and AmB, 48 h, RPMI 1640
# Procedure, shortened: as §1
# [12] = system: Candida glabrata ATCC 2001 (strain H); assay: as above; format: cell-based; conditions: for MIC-0: compounds 1-4n and AmB, 48 h, RPMI 1640; for MIC: Nakaseomyces glabratus
# Procedure, shortened: as §1
# [13] = system: Aspergillus terreus ATCC MYA-3633 (strain M); assay: Antifungal MIC determination, filamentous fungi spores; format: cell-based; conditions: for MIC: Aspergillus terreus, read-out: MIC-0
# Procedure, shortened: (§2)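 A modified CLSI M27-A3 protocol is used, with final compound levels from 12.5 to 0.02 μg/mL in two-fold steps. Cells are incubated at 5×10^3 CFU/mL in buffered RPMI 1640 at 35° C for 48 h.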
# [14] = system: Aspergillus nidulans ATCC 38163 (strain L); assay: as above; format: cell-based; conditions: for MIC-0: strain L, spores
# Procedure, shortened: as §2
# [15] = system: Aspergillus flavus ATCC MYA-3631 (strain K); assay: as above; format: cell-based; conditions: all compounds; for MIC: Aspergillus flavus, read-out: MIC-0
# Procedure, shortened: as §2
# [16] = Solubility in the RPMI 1640 medium used for MIC determination; conditions: medium of MIC determination
# [17] = system: Aspergillus strains (K-M); assay: Antifungal MIC, summary over Aspergillus strains; format: cell-based; conditions: spores
# Description: Fungal MIC determination experiments were performed using untreated 96-well plates (Corning). Cells were counted either by using a hemocytometer (Hausser Scientific, Horsham, Pa., USA) or by measuring optical density at attenuance of 600 nm (OD600) by using a Genesys 20 spectrophotometer (Thermo Scientific, Waltham, Mass., USA). Spectrophotometric and colorimetric measurements in 96-well plates were performed using a SpectraMax M5 spectrometer (Molecular Devices, Sunnyvale, Calif., USA).
# Yeast strains Candida albicans ATCC 10231 (strain A), C. albicans ATCC 64124 (strain B), and C. albicans ATCC MYA-2876(S) (strain C) were kindly provided by Dr. Jon Y. Takemoto (Utah State University, Logan, UT, USA). C. albicans ATCC MYA-90819(R) (strain D), C. albicans ATCC MYA-2310(S) (strain E), C. albicans ATCC 1237(R) (strain F), C. albicans ATCC MYA-1003(R) (strain G), Candida glabrata ATCC 2001 (strain H), Candida krusei ATCC 6258 (strain I), and Candida parapsilosis ATCC 22019 (strain J) were obtained from the American Type Culture Collection (ATCC, Manassas, Va., USA). […]
# The MIC values against fungal strains were determined based on a previously published protocol. MIC values for ebsulfur (2a) analogues against fungal cells were evaluated in 96-well plates as described in the CLSI document M27-A3 with minor modifications. […]
# [18] = system: C. albicans ATCC MYA-1237(R) (strain F); conditions: azoles, previously reported (Shrestha 2015); cited from earlier work
# [19] = system: C. albicans ATCC 64124 (strain B); conditions: azoles, previously reported (Shrestha 2015); cited from earlier work
# [20] = system: C. albicans ATCC 90819(R) (strain D); conditions: azoles, previously reported (Shrestha 2015); cited from earlier work
# [21] = system: C. albicans ATCC MYA-1003(R) (strain G); conditions: azoles, previously reported (Shrestha 2015); cited from earlier work
# [22] = system: Aspergillus nidulans ATCC 38163 (strain L); conditions: azoles, previously reported (Shrestha 2015); cited from earlier work
# [23] = system: Candida albicans ATCC 10231 (strain A); conditions: azoles, previously reported (Shrestha 2015); cited from earlier work
# [24] = system: C. albicans ATCC MYA-2876(S) (strain C); conditions: azoles, previously reported (Shrestha 2015); cited from earlier work
# [25] = system: C. albicans ATCC MYA-2310(S) (strain E); conditions: azoles, previously reported (Shrestha 2015); cited from earlier work
# [26] = strain M, all compounds, spores
# [27] = ATCC6258, strain I, azoles, read-out: MIC-2
# [28] = ATCC22019, strain J, azoles, read-out: MIC-2
# [29] = ATCC2001, strain H, azoles, read-out: MIC-2
# [30] = Candida albicans, read-out: MIC-2
structure (smiles),measurement,setting,value
"O=c1c2ccccc2[se]n1-c1ccccc1 [Compound 1, ebselen, reference compound]",ROS induction (DCFH-DA fluorescence),[1],highly fluorescent
same,fungicidal or fungistatic effect,[2]; 1× MIC,potent fungicidal activity
same,time of complete fungal cell death,[2]; 1× MIC,6 h
same,time from which completely fungicidal,[2]; 2× MIC,3 h
same,MIC-0,[3],3.13 µg/mL
same,MIC-0,[4],12.5 µg/mL
same,MIC-0,[5],12.5 µg/mL
same,MIC-0,[6],1.56 µg/mL
same,MIC-0,[7],12.5 µg/mL
same,MIC-0,[8],>12.5 µg/mL
same,MIC-0,[9]; strain I,1.56 µg/mL
same,MIC-0,[10]; strain J,6.25 µg/mL
same,MIC-0,[11],12.5 µg/mL
same,MIC-0,[12]; strain H,1.56 µg/mL
same,MIC-0,[13]; [26],1.56 µg/mL
same,MIC-0,[14],1.56 µg/mL
same,MIC-0,[15],6.25 µg/mL
O=c1c2ccccc2sn1-c1ccc2ccccc2n1 [Compound 2o],solubility in the RPMI 1640 medium,[16],solubility issues
O=c1c2ccccc2sn1C1CCCCCCC1 [Compound 3n],MIC-0,[3],6.25 µg/mL
same,MIC-0,[4],6.25 µg/mL
same,MIC-0,[5],3.13 µg/mL
same,MIC-0,[6],6.25 µg/mL
same,MIC-0,[7],6.25 µg/mL
same,MIC-0,[8],6.25 µg/mL
same,MIC-0,[9]; strain I,0.39 µg/mL
same,MIC-0,[10]; strain J,3.13 µg/mL
same,MIC-0,[11],3.13 µg/mL
same,MIC-0,[12]; strain H,3.13 µg/mL
same,"MIC against Aspergillus strains K-M, range",[17],≤0.02 to 0.05 µg/mL
same,MIC-0,[13]; [26],≤0.02 µg/mL
same,MIC-0,[14],0.05 µg/mL
same,MIC-0,[15],≤0.02 µg/mL
O=c1c2ccccc2sn1C12CC3CC(CC(C3)C1)C2 [Compound 3o],solubility in the RPMI 1640 medium,[16],not soluble
"OC(Cn1cncn1)(Cn1cncn1)c1ccc(F)cc1F [FLC, fluconazole]",MIC-2,[18],62.5^a μg/mL
same,MIC-2,[19],>125^a μg/mL
same,MIC-2,[20],>125^a μg/mL
same,MIC-2,[21],62.5^a μg/mL
same,MIC-0,[22],6.25^a μg/mL
same,MIC-2,[23],62.5^a μg/mL
same,MIC,[9]; [27],> 31.2 µg/mL
same,MIC,[10]; [28],1.95 µg/mL
same,MIC,[12]; [29],> 31.2 µg/mL
same,MIC-2,[24],15.6^a μg/mL
same,MIC-2,[25],>125^a μg/mL
same,MIC,[15],6.25 µg/mL
"CC[C@@H]([C@H](C)O)n1ncn(-c2ccc(N3CCN(c4ccc(OC[C@@H]5CO[C@@](Cn6cncn6)(c6ccc(F)cc6F)C5)cc4)CC3)cc2)c1=O [POS, posaconazole]",MIC-2,[18],15.6^a μg/mL
same,MIC-2,[19],>62.5^a μg/mL
same,MIC-2,[20],31.2^a μg/mL
same,MIC-2,[21],15.6^a μg/mL
same,MIC-0,[22],0.195^a μg/mL
same,MIC-2,[23],0.5^a μg/mL
same,MIC,[9]; [27],0.06 µg/mL
same,MIC,[10]; [28],< 0.03 µg/mL
same,MIC,[12]; [29],0.12 µg/mL
same,MIC-2,[24],7.8a μg/mL
same,MIC-2,[25],31.2^a μg/mL
same,MIC,[13]; [26],0.48 µg/mL
same,MIC,[15],0.24 µg/mL
"C[C@@H](c1ncncc1F)[C@](O)(Cn1cncn1)c1ccc(F)cc1F [VOR, voriconazole, reference compound]",MIC,[3]; [30],1.95 µg/mL
same,MIC,[4]; [30],0.975 µg/mL
same,MIC,"[5]; Candida albicans, ATCC64124, read-out: MIC-2",> 31.2 µg/mL
same,MIC,"[6]; Candida albicans, ATCC90819, read-out: MIC-2",1.95 µg/mL
same,MIC,[7]; [30],7.8 µg/mL
same,MIC,[8]; [30],0.975 µg/mL
same,MIC,"[9]; ATCC6258, read-out: MIC-2",0.12 µg/mL
same,MIC,"[10]; ATCC22019, read-out: MIC-2",< 0.03 µg/mL
same,MIC,"[11]; Candida albicans, ATCC10231, read-out: MIC-2",7.8 µg/mL
same,MIC,"[12]; ATCC2001, read-out: MIC-2",0.06 µg/mL
same,"MIC against Aspergillus strains K-M, range",[17],0.03 to 0.24 µg/mL
same,MIC,[13],0.12 µg/mL
same,MIC,"[14]; Aspergillus nidulans, ATCC38163, read-out: MIC-0",0.03 µg/mL
